Laboratory results from patent publication US20250213555A1, “SUBSTITUTED TETRAHYDROFURAN ANALOGS AS MODULATORS OF SODIUM CHANNELS” (VERTEX PHARMACEUTICALS INCORPORATED, priority 2021, published 2025).
Where two headings read alike, the source gives them in different places.

Biological target: human Nav 1.8 (Homo sapiens, UniProt Q9Y5Y9)
Experiment: E-VIPR assay detecting and measuring Nav inhibition properties
Assay type: cell-based
Settings: HEK cells expressing a truncated form of human Nav 1.8, read-out: measured IC50 value in the E-VIPR Assay
Method in brief: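 Nav inhibition was read by E-VIPR: cells were electrically stimulated while coumarin/oxonol FRET emissions were recorded. Cells were HEK expressing a truncated human Nav 1.8 and co-transduced with KIR2.1, and were assayed in 25% final human serum.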

[1] = compound numbers without "*" (not marked as run in the presence of human serum)

Sequence of human Nav 1.8 (Q9Y5Y9 126-399 limits assumed): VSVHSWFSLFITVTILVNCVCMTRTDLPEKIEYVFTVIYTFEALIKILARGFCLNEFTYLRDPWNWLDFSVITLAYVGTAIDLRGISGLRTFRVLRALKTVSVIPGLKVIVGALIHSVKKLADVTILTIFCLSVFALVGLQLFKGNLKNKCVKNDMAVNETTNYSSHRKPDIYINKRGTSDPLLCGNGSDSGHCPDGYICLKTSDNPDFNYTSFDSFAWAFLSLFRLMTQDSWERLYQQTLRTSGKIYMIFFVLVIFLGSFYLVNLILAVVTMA
Sequence of human Nav 1.8 (Q9Y5Y9 660-890 limits assumed): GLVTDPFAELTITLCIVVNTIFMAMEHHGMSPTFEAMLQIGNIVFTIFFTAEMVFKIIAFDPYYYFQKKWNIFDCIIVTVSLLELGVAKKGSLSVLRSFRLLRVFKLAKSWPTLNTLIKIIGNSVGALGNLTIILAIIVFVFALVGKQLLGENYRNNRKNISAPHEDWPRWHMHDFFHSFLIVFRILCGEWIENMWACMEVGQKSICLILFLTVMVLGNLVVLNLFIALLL
Sequence of human Nav 1.8 (Q9Y5Y9 1148-1722 limits assumed): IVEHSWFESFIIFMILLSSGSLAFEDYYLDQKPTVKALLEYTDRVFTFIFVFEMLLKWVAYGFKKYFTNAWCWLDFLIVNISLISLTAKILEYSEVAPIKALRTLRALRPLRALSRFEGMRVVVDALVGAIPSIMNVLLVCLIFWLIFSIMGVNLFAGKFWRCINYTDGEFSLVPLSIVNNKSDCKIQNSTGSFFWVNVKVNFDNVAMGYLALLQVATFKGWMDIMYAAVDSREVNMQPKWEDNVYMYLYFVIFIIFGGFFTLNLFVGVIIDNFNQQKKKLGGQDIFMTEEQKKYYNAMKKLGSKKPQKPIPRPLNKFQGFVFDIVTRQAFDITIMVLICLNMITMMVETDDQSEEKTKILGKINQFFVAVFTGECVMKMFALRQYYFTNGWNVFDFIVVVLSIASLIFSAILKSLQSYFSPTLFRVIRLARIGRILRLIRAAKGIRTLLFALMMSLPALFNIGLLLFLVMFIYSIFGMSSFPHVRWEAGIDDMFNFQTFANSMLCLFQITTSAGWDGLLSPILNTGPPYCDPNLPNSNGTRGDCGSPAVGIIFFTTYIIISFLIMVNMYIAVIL

IC50 [1] [nM] | IC50 (assay performed in the presence of human serum (compound numbers followed by "*")) [nM] | SMILES
100 to 1000 |  | COc1c([C@H]2[C@H](C(=O)Nc3ccnc(C(=O)N[C@H]4CN(C)CC[C@H]4OC)c3)O[C@@](C)(C(F)(F)F)[C@H]2C)ccc(F)c1F [Compound 285, 4-((2R,3S,4S,5R)-3-(3,4-difluoro-2-methoxyphenyl)-4,5-dimethyl-5-(trifluoromethyl)tetrahydrofuran-2-carboxamido)-N-((3S,4R)-4-methoxy-1-methylpiperidin-3-yl)picolinamide]
< 10 |  | COc1c([C@H]2[C@H](C(=O)Nc3ccnc(C(=O)N4C[C@@H](F)[C@@H](N)C4)c3)O[C@@](C)(C(F)(F)F)[C@H]2C)ccc(F)c1F [Compound 255, (2R,3S,4S,5R)-N-(2-((3S,4R)-3-amino-4-fluoropyrrolidine-1-carbonyl)pyridin-4-yl)-3-(3,4-difluoro-2-methoxyphenyl)-4,5-dimethyl-5-(trifluoromethyl)tetrahydrofuran-2-carboxamide]
10 to 100 |  | COc1c([C@H]2[C@H](C(=O)Nc3ccnc(C(=O)N4CC5(CCCN5C)C4)c3)O[C@@](C)(C(F)(F)F)[C@H]2C)ccc(F)c1F [Compound 270, (2R,3S,4S,5R)-3-(3,4-difluoro-2-methoxyphenyl)-4,5-dimethyl-N-(2-(5-methyl-2,5-diazaspiro[3.4]octane-2-carbonyl)pyridin-4-yl)-5-(trifluoromethyl)tetrahydrofuran-2-carboxamide]
≥ 1000 |  | COCCOc1c([C@@H]2[C@@H](C(=O)Nc3ccnc(C(N)=O)n3)O[C@](C)(C(F)(F)F)[C@@H]2C)ccc(F)c1C (single isomer, unassigned) [Compound 4]
< 10 |  | COc1c([C@H]2[C@H](C(=O)Nc3ccnc(C(=O)N4CCN[C@H](C)C4)c3)O[C@@](C)(C(F)(F)F)[C@H]2C)ccc(F)c1F [Compound 249, (2R,3S,4S,5R)-3-(3,4-difluoro-2-methoxyphenyl)-4,5-dimethyl-N-(2-((R)-3-methylpiperazine-1-carbonyl)pyridin-4-yl)-5-(trifluoromethyl)tetrahydrofuran-2-carboxamide]
10 to 100 |  | COc1c([C@H]2[C@H](C(=O)Nc3ccnc(C(=O)N4C[C@@H](F)[C@H](N(C)C)C4)c3)O[C@@](C)(C(F)(F)F)[C@H]2C)ccc(F)c1F [Compound 299, (2R,3S,4S,5R)-3-(3,4-difluoro-2-methoxyphenyl)-N-(2-((3R,4R)-3-(dimethylamino)-4-fluoropyrrolidine-1-carbonyl)pyridin-4-yl)-4,5-dimethyl-5-(trifluoromethyl)tetrahydrofuran-2-carboxamide]
< 10 |  | C[C@H]1[C@@H](c2ccc(F)c(F)c2OCC(=NO)C2(F)CC2)[C@H](C(=O)Nc2ccnc(C(N)=O)c2)O[C@@]1(C)C(F)(F)F [Compound 190, 4-((2R,3S,4S,5R)-3-(3,4-difluoro-2-(2-(1-fluorocyclopropyl)-2-(hydroxyimino)ethoxy)phenyl)-4,5-dimethyl-5-(trifluoromethyl)tetrahydrofuran-2-carboxamido)picolinamide]
< 10 |  | C[C@H]1[C@@H](c2ccc(F)c(F)c2OCc2cnco2)[C@H](C(=O)Nc2ccnc(C(N)=O)c2)O[C@@]1(C)C(F)(F)F [Compound 6]
 | 100 to 1000 | Cc1c(F)ccc([C@@H]2C[C@](C)(C(F)(F)F)O[C@H]2C(=O)Nc2ccnc(C(N)=O)c2)c1OCCO (single isomer, unassigned) [Compound 37]
< 10 |  | C[C@H]1[C@@H](c2ccc(F)c(F)c2OCC#N)[C@H](C(=O)Nc2ccnc(C(N)=O)c2)O[C@@]1(C)C(F)(F)F [Compound 69, 4-((2R,3S,4S,5R)-3-(2-(cyanomethoxy)-3,4-difluorophenyl)-4,5-dimethyl-5-(trifluoromethyl)tetrahydrofuran-2-carboxamido)picolinamide]
10 to 100 |  | Cc1cnc(C(N)=O)cc1NC(=O)[C@@H]1O[C@@](C)(C(F)(F)F)[C@@H](C)[C@H]1c1ccc(F)c(F)c1OCCN1CC2(COC2)C1 [Compound 181, 4-((2R,3S,4S,5R)-3-(2-(2-(2-oxa-6-azaspiro[3.3]heptan-6-yl)ethoxy)-3,4-difluorophenyl)-4,5-dimethyl-5-(trifluoromethyl)tetrahydrofuran-2-carboxamido)-5-methylpicolinamide]
